Measured values reported in patent publication US20120252721A1 (priority 2011, published 2012).
Like-named read-outs stand apart in the source and are kept apart here.

Experiments:
[1] = tested on: 1a-luc Y93C (HCV genotype 1a replicon); assay: Luciferase replicon transient transfection assay, 1a-luc Y93C; type: cell-based, hepatitis C virus; conditions: for EC50: Hepatitis C virus, 96 h, Huh7.5 cells, 4 days
Experimental: (§1) The luciferase replicon transient transfection assay measures the ability of a test compound to inhibit the replication of a transiently-transfected HCV luciferase-bearing wild-type or mutant replicon in cured human hepatoma cells (Huh7.5). The inhibition of HCV replication was measured by quantification of luciferase protein expression. This assay has been validated using a panel of genotype 1a and 1b replicons bearing mutations known to be associated with resistance to BMS-790052. Briefly, subconfluent Huh7.5 cells were electroporated with 10 μg of wild-type or mutant luciferase-bearing HCV replicon RNA. The cells were then seeded in 96-well opaque white plates at 3×10^4 cells/well in 150 μL/well and incubated for 4 hrs at 37° C./5% CO2. Ten 1:5 serial dilutions of each test compound were made in media (DMEM containing glucose, L-glutamine and sodium pyruvate, 10% fetal bovine serum, 100 IU/mL penicillin, 100 μg/mL streptomycin, 2 mM GlutaMAX, and 1×MEM non-essential amino acids (Mediatech, Inc. and Invitrogen Corp.)) at concentrations that were 4× higher than the final concentrations to be tested and 50 μL/well was added to the transfected cells. Untreated, mock-transfected cells served as a negative control of luciferase expression. The plates were incubated at 37° C./5% CO2 for 4 days whereupon the media was removed and 50 μL of ONE-glo luciferase substrate (Promega) was added to each well. The plates were agitated on a rotating platform at room temperature for 3 min and read in a Victor^3V microplate reader (Perkin-Elmer) using a 700 nm cut-off filter with a 1 sec read time. EC50 values were calculated from dose response curves from the resulting best-fit equations determined by Microsoft Excel and XLfit 4.1 software.

[2] = tested on: ZS11-luc L31F (HCV genotype 1b replicon); assay: Luciferase replicon transient transfection assay, ZS11-luc L31F; type: cell-based, hepatitis C virus; conditions: for EC50: Hepatitis C virus, 96 h, Huh7.5 cells, 4 days
Experimental: as §1

[3] = tested on: 1a-luc WT (HCV genotype 1a replicon); assay: Luciferase replicon transient transfection assay, 1a-luc WT; type: cell-based; conditions: Hepatitis C virus, 96 h, Huh7.5 cells, 4 days
Experimental: as §1

[4] = tested on: ZS11-luc L31M (HCV genotype 1b replicon); assay: Luciferase replicon transient transfection assay, ZS11-luc L31M; type: cell-based, hepatitis C virus; conditions: for EC50: Hepatitis C virus, 96 h, Huh7.5 cells, 4 days
Experimental: as §1

[5] = tested on: ZS11-luc Y93H (HCV genotype 1b replicon); assay: Luciferase replicon transient transfection assay, ZS11-luc Y93H; type: cell-based, hepatitis C virus; conditions: for EC50: Hepatitis C virus, 96 h, Huh7.5 cells, 4 days
Experimental: as §1

[6] = tested on: HCV genotype 1a H77 strain subgenomic luciferase replicon (H1a-luc); assay: Luciferase replicon assay, genotype 1a; type: cell-based; conditions: Hepatitis C virus, read-out: EC50 1a
Procedure, shortened: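 Huh-7 cells carrying H1a-luc subgenomic replicon (luciferase-neomycin phosphotransferase fusion), seeded at 1×10^4 cells/well, dosed 3 h later with ten 5-fold compound dilutions for 72 h at 37 °C. Replication read as luciferase luminescence; replicon-free Huh-7 cells as negative control. EC50 from dose-response curve fits.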

[7] = tested on: 1a-luc Y93H (HCV genotype 1a replicon); assay: Luciferase replicon transient transfection assay, 1a-luc Y93H; type: cell-based, hepatitis C virus; conditions: for EC50: Hepatitis C virus, 96 h, Huh7.5 cells, 4 days
Experimental: as §1

[8] = tested on: HCV genotype 1b Con1 strain subgenomic luciferase replicon (Zluc); assay: Luciferase replicon assay, genotype 1b; type: cell-based; conditions: Hepatitis C virus
Procedure, shortened: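 Replicon-bearing Huh-7 cells (1×10^4 H1a-luc or 7.5×10^3 Zluc per well) dosed 3 h after plating with ten 5-fold compound dilutions, 72 h at 37 °C/5% CO2. Luciferase measured by ONE-glo luminescence; EC50 from dose-response fits, replicon-free Huh-7 as negative control.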

[9] = tested on: 1a-luc Q30H (HCV genotype 1a replicon); assay: Luciferase replicon transient transfection assay, 1a-luc Q30H; type: cell-based, hepatitis C virus; conditions: for EC50: Hepatitis C virus, 96 h, Huh7.5 cells, 4 days
Experimental: as §1

[10] = tested on: ZS11-luc L31V (HCV genotype 1b replicon); assay: Luciferase replicon transient transfection assay, ZS11-luc L31V; type: cell-based, hepatitis C virus; conditions: for EC50: Hepatitis C virus, 96 h, Huh7.5 cells, 4 days
Experimental: as §1

[11] = tested on: 1a-luc Y93N (HCV genotype 1a replicon); assay: Luciferase replicon transient transfection assay, 1a-luc Y93N; type: cell-based, hepatitis C virus; conditions: for EC50: Hepatitis C virus, 96 h, Huh7.5 cells, 4 days
Experimental: as §1

[12] = tested on: ZS11-luc WT (HCV genotype 1b replicon); assay: Luciferase replicon transient transfection assay, ZS11-luc WT; type: cell-based, hepatitis C virus; conditions: for EC50: genotype 1b, ZS11-luc WT, Huh7.5 cells, 4 days; for Ratio: ZS11-luc (Table 1I)
Experimental: as §1

[13] = tested on: 1a-luc Q30E (HCV genotype 1a replicon); assay: Luciferase replicon transient transfection assay, 1a-luc Q30E; type: cell-based, hepatitis C virus; conditions: for EC50: Hepatitis C virus, 96 h, Huh7.5 cells, 4 days
Experimental: as §1

[14] = tested on: ZS11-luc Y93C (HCV genotype 1b replicon); assay: Luciferase replicon transient transfection assay, ZS11-luc Y93C; type: cell-based, hepatitis C virus; conditions: for EC50: Hepatitis C virus, 96 h, Huh7.5 cells, 4 days
Experimental: as §1

[15] = tested on: 1a-luc L31V (HCV genotype 1a replicon); assay: Luciferase replicon transient transfection assay, 1a-luc L31V; type: cell-based, hepatitis C virus; conditions: for EC50: Hepatitis C virus, 96 h, Huh7.5 cells, 4 days
Experimental: as §1

[16] = Hepatitis C virus, Huh7.5, 96 h

| Structure (SMILES) | Ratio [1] | EC50 [1] [nM] | Ratio [2] | EC50 [2] [nM] | EC50 [3] [pM] | Ratio [4] | EC50 [4] [nM] | Ratio [5] | EC50 [5] [nM] | EC50 [6] [nM] | Ratio [7] | EC50 [7] [nM] | EC50 [8] [nM] | EC50 [9] [nM] | Ratio [10] | EC50 [10] [nM] | Ratio [11] | EC50 [11] [nM] | Ratio [13] | EC50 [13] [nM] | also measured |
| --- | --- | --- | --- | --- | --- | --- | --- | --- | --- | --- | --- | --- | --- | --- | --- | --- | --- | --- | --- | --- | --- |
| COC(=O)N[C@H](C(=O)N1CCC[C@H]1c1nc2cc(-c3csc4c(-c5ccc(-c6cnc([C@@H]7CCCN7C(=O)[C@H](NC(=O)OC)c7ccccc7)[nH]6)cc5)csc34)ccc2[nH]1)C(C)C [Compound A169, [(S)-1-((S)-2-{6-[6-(4-{(S)-2-[1-((R)-2-methoxycarbonylamino-2-phenyl-acetyl)-pyrrolidin-2-yl]-3H-imidazol-4-yl}-phenyl)-thieno[3,2-b]thiophen-3-yl]-1H-benzoimidazol-2-yl}-pyrrolidine-1-carbonyl)-2-methyl-propyl]-carbamic acid methyl ester] | 40 | 0.08 | 4 | 0.01 | 2 | 4 | 0.009 | 82 | 0.2 | < 0.1 | 4428 | 9 | < 0.1 | 0.05 | 14 | 0.03 | 14,363 | 30 | 422 | 0.9 | Ratio [9]: 24; EC50 [12, 16]: 2 pM; Ratio [12]: 1; EC50 [12]: 1.7 pM; Ratio [14]: 3; EC50 [14]: 6 pM; Ratio [15]: 425; EC50 [15]: 0.9 nM |
| COC(=O)N[C@H](C(=O)N1CCC[C@H]1c1ncc(-c2ccc(-c3csc4c(-c5cnc([C@@H]6CCCN6C(=O)[C@@H](NC(=O)OC)C(C)C)[nH]5)csc34)cc2)[nH]1)C(C)C [Compound A15, [(S)-1-((S)-2-{4-[4-(6-{2-[(S)-1-((S)-2-methoxycarbonylamino-3-methyl-butyryl)-pyrrolidin-2-yl]-3H-imidazol-4-yl}-thieno[3,2-b]thiophen-3-yl)-phenyl]-1H-imidazol-2-yl}-pyrrolidine-1-carbonyl)-2-methyl-propyl]-carbamic acid methyl ester] | – | – | – | – | – | – | – | – | – | – | – | – | < 0.1 | – | – | – | – | – | – | – | EC50 ([6]; genotype 1a): < 0.1 nM |
| COC(=O)N[C@H](C(=O)N1CCC[C@H]1c1ncc(-c2ccc(-c3csc4c(-c5cnc([C@@H]6CCCN6C(=O)[C@H](NC(=O)OC(C)(C)C)c6ccccc6)[nH]5)csc34)cc2)[nH]1)C(C)C [Compound A111, [(S)-1-((S)-2-{4-[4-(6-{(S)-2-[1-((R)-2-tert-butoxycarbonylamino-2-phenyl-acetyl)-pyrrolidin-2-yl]-3H-imidazol-4-yl}-thieno[3,2-b]thiophen-3-yl)-phenyl]-1H-imidazol-2-yl}-pyrrolidine-1-carbonyl)-2-methyl-propyl]-carbamic acid methyl ester] | 146 | 6 | 8 | 0.01 | 40 | 7 | 0.01 | 48 | 0.08 | 0.1 to 1 | >4859 | > 198 | < 0.1 | 2 | 51 | 0.09 | >11,202 | > 454 | 957 | 47 | EC50 [12, 16]: 2 pM; Ratio [14]: 4; EC50 [14]: 6 pM; Ratio [15]: 768; EC50 [15]: 36 nM |
| COC(=O)N[C@H](C(=O)N1CCC[C@H]1c1ncc(-c2ccc(-c3csc4c(-c5ccc6[nH]c([C@@H]7CCCN7C(=O)[C@H](NC(=O)OC)c7ccccc7)nc6c5)csc34)cc2)[nH]1)C(C)C [Compound A172, [(S)-1-((S)-2-{5-[4-(6-{(S)-2-[1-((R)-2-Methoxycarbonylamino-2-phenyl-acetyl)-pyrrolidin-2-yl]-3H-benzoimidazol-5-yl}-thieno[3,2-b]thiophen-3-yl)-phenyl]-1H-imidazol-2-yl}-pyrrolidine-1-carbonyl)-2-methyl-propyl]-carbamic acid methyl ester] | 96 | 0.4 | 4 | 0.02 | 4 | 3 | 0.01 | 56 | 0.3 | < 0.1 | 5427 | 21 | < 0.1 | 0.08 | 9 | 0.04 | 22,328 | 81 | 423 | 2 | Ratio [9]: 21; Ratio [12]: 1; Ratio [14]: 2; EC50 [14]: 10 pM; Ratio [15]: 695; EC50 [15]: 3 nM |
